Test results published in patent US7034005B2, “Use of agent for suppressing infection and proliferation of human immunodeficiency syndrome virus” (The Kitasato Institute, priority 2002, dated 2006).
Entries after “also recorded” stand apart in the source; their conditions may differ.

System: HIV-1BAL strain in M type macrophage (M-MΦ) derived from human monocytes
Assay: Proliferation of HIV-1 in M-MΦ: p24 protein in culture supernatant by sandwich ELISA
Type: cell-based
Conditions: HIV-1BAL; for viral production in M-MΦ at 30 μM: incubated for 10 days (FIGS. 21-25); for production of p24 protein in M-MΦ at various concentrations: incubated for 10 days, compared with DMSO (FIGS. 21-25); for p24 protein / viral proliferation in M-MΦ with kinase inhibitor: 10 μM, up to day 14, compared with control group (FIG. 20)
Method: Macrophages derived from monocytes were prepared by culturing the recovered monocytes in the presence of M-CSF (macrophage colony-stimulating factor) (10^4 U/ml, provided by Morinaga Milk Co.), granulocytes and granulocyte-macrophage colony-stimulating factor, GM-CSF) (500 U/ml, provided by Japan Scheling Plough Co., Osaka, or purchased from R & S Genzyme-TECHNE Inc.) with RPMI1640 medium added with FCS10% (Nissui Seiyaku Co., Tokyo) for 7–8 days.
The macrophage prepared by differential induction of M-CSF from human monocytes is designated as M type macrophage (M type MΦ or M-MΦ) and the macrophage prepared by differential induction of GM-CSF from human monocytes is designated as GM type macrophage (GM type MΦ or GM-MΦ) Further, alveolar macrophage (alveolar MΦ or A-MΦ) was prepared as follows. Cells in the alveolar lavage liquid obtained from the alveolar lavage of healthy volunteers were recovered, suspended and adhered to plastics, then the non-adhered cells were washed out and the remained adhered cells were designated as the alveolar MΦ.
Infection of HIV-1 to macrophage was performed as follows. Macrophage directed viral strains, HIV-1JR-FL and HIV-1BAL, were infected for 2 hours in contact with M-MΦ, GM-MΦ and A-MΦ (adjusted to 2.5×10^5/well, Flacon No3043: Becton Dickinson Labware, Inc. U.S.)at low concentration (p24 antigen titer 50 ng/ml, TCID50=3000/ml virus to final concentration at 100 pg/ml), and non-adsorbed virus to the macrophage was washed out, and cultured with adding fresh medium. In case of the medium with M-MΦ, M-CSF was added (10^4 U/ml), and that of the medium with GM-MΦ, GM-CSF was added (500 U/ml).
Proliferation of virus was examined with the released viral particles in the culture supernatant after the infection by the sandwich ELISA using two types of anti-p24 antibody (Nu24 and 10B5^13). The following JAM62 and JAM65 were used as LTR (HIV long terminal repeat)-gap gene primer. The following JAM63 and JAM 64 were used as the internal primer for the nested PCR. • JAM62: • 5′-[…]-3′ (SEQ ID NO: 1) • JAM65: • 5′-[…]-3′ (SEQ ID NO: 2) • JAM63: • 5′-GTGTOACTCTGGTAACTAGAGATCC-3′ (SEQ ID NO: 3) • JAM64: • 5′-[…]-3′ (SEQ ID NO: 4) (1-4) Assay of Expression of Tyrosine Kinase Hck Protein and Transcription Factor C/EBPβ Protein
In order to show growth suppression effect of the present invention, among macrolide derivatives, EM, EM201, EM202, EM703, CAM, EM722, EM730, EM732, EM736, EM734, EM735, EM747, EM748, EM743, EM746, EM750 or EM751 was dissolved in DMSO with each 100 mM concentration, and used in dilution with the medium thereafter. A control group was M-MΦ treated only with DMSO used for dissolving macrolide derivatives.
M-MΦ and GM-M Φ were subjected to contact infection with HIV-1BAL strain for 2 hours, added 30 μM of EM, EM201, EM202, EM703, CAM,EM722, EM730, EM732, EM736, EM734, EM735, EM747, EM748, EM743, EM746, EM750 or EM751, incubated for 14 days and amount of p24 protein in the cultured supernatant was assayed in the time-dependent manner.

| Compound | viral production in M-MΦ at 30 μM | production of p24 protein in M-MΦ at various concentrations | p24 protein / viral proliferation in M-MΦ with kinase inhibitor |
| --- | --- | --- | --- |
| CN[C@H]1C[C@@H](C)O[C@@H](O[C@@H]2[C@@H](C)[C@H](O[C@H]3C[C@@](C)(OC)[C@@H](O)[C@H](C)O3)[C@@H](C)C(=O)O[C@@H](C(C)O)[C@@H](C)C3=C(C)C[C@@]2(C)O3)[C@@H]1O (stereo partly shown) [EM751, de(3′-N-methyl)-de[12-(1-hydroxypropyl)]-8,9-anhydro-pseudoerythromycin A 6,9-hemiketal] | inhibit almost completely viral production; also recorded: almost complete inhibition | suppressed depending on the concentration of agent |  |
| CC[C@@H](O)[C@@](C)(O)[C@@H]1OC(=O)[C@H](C)[C@@H](O[C@H]2C[C@@](C)(OC)[C@@H](O)[C@H](C)O2)[C@H](C)[C@@H](O[C@@H]2O[C@H](C)C[C@H](N3CCCCC3)[C@H]2O)[C@@]2(C)CC(C)=C(O2)[C@@H]1C [EM734, de(3′-dimethylamino)-3′-piperidino-8,9-anhydro-pseudoerythromycin A 6,9-hemiketal] | inhibit almost completely viral production; also recorded: almost complete inhibition | suppressed depending on the concentration of agent |  |
| CC[C@@H](O)[C@@](C)(O)[C@@H]1OC(=O)[C@H](C)[C@@H](O[C@H]2C[C@@](C)(OC)[C@@H](O)[C@H](C)O2)[C@H](C)[C@@H](O[C@@H]2O[C@H](C)C[C@H](N3CCOCC3)[C@H]2O)[C@@]2(C)CC(C)=C(O2)[C@@H]1C [EM747, de(3′-dimethylamino)-3′-morpholino-8,9-anhydro-pseudoerythromycin A 6,9-hemiketal] | inhibit almost completely viral production; also recorded: almost complete inhibition | suppressed depending on the concentration of agent |  |
| COc1cccc(-c2cc(=O)c3ccccc3o2)c1N [PD98059, 2-[2-amino-3-methoxyphenyl]-4H-1-benzopyran-4-one, reference compound] |  |  | amount of p24 protein was not different in the control group |
| de[12-(1-hydroxypropyl)]-8,9-anhydro-pseudo-erythromycin A 6,9-hemiketal [EM746] | inhibit almost completely viral production; also recorded: almost complete inhibition | suppressed depending on the concentration of agent |  |
| COC1(C)CC(OC2C(C)C(=O)OC(C(C)=NO)C(C)C3=C(C)CC(C)(O3)C(OC3OC(C)CC(N(C)C)C3O)C2C)OC(C)C1O (stereo not shown) [EM743, de(12-hydroxy)-de[12-(1-hydroxypropyl)]-12-hydroxy-oxime-8,9-anhydro-pseudoerythromycin A 6,9-hemiketal] | inhibit almost completely viral production; also recorded: almost complete inhibition | suppressed depending on the concentration of agent |  |
| C[S+]([O-])c1ccc(-c2nc(-c3ccc(F)cc3)c(-c3ccncc3)[nH]2)cc1 (stereo not shown) [SB203580, 4-[4-fluoro-phenyl]-2-[4-methylsulfinylphenyl]-5-[4-pyridyl]-1H-imidazole, reference compound] |  |  | no p24 protein was almost detected even on day 14 |
| bis-de(3′-N-methyl)-3′-N-benzyl-8,9-anhydro-pseudo-erythromycin A 6,9-hemiketal [EM732] | inhibit almost completely viral production; also recorded: almost complete inhibition | suppressed depending on the concentration of agent |  |
| de(3′-dimethylamino)-3′-[hexahydro-1(1H)-azepinyl]-8,9-anhydro-pseudoerythromycin A 6,9-hemiketal [EM748] | inhibit almost completely viral production; also recorded: almost complete inhibition | suppressed depending on the concentration of agent |  |
| CC[C@@H](O)[C@@](C)(O)[C@@H]1OC(=O)[C@H](C)[C@@H](O[C@H]2C[C@@](C)(OC)[C@@H](O)[C@H](C)O2)[C@H](C)[C@@H](O[C@@H]2O[C@H](C)C[C@H](NC(C)C)[C@H]2O)[C@@]2(C)CC(C)=C(O2)[C@@H]1C [EM736, bis-de(3′-N-methyl)-3′-N-(2-propyl)-8,9-anhydro-pseudoerythromycin A 6,9-hemiketal] | inhibit almost completely viral production; also recorded: almost complete inhibition | suppressed depending on the concentration of agent |  |
| CCCNC1CC(C)OC(OC2C(C)C(OC3CC(C)(OC)C(O)C(C)O3)C(C)C(=O)OC(C(C)(O)C(O)CC)C(C)C3=C(C)CC2(C)O3)C1O (stereo not shown) [EM730, bis-de(3′-N-methyl)-3′-N-propyl-8,9-anhydro-pseudo-erythromycin A 6,9-hemiketal] | inhibit almost completely viral production; also recorded: almost complete inhibition | suppressed depending on the concentration of agent |  |
| CC[C@@H](O)[C@@](C)(O)[C@@H]1OC(=O)[C@H](C)[C@@H](O[C@H]2C[C@@](C)(OC)[C@@H](O)[C@H](C)O2)[C@H](C)[C@@H](O[C@@H]2O[C@H](C)C[C@H](N3CCCC3)[C@H]2O)[C@@]2(C)CC(C)=C(O2)[C@@H]1C [EM735, de(3′-dimethylamino)-3′-pyrrolidino-8,9-anhydro-pseudoerythromycin A 6,9-hemiketal] | inhibit almost completely viral production; also recorded: almost complete inhibition | suppressed depending on the concentration of agent |  |
| CCC(O)C(C)(O)C1OC(=O)C(C)C(O)C(C)C(OC2OC(C)CC(NC)C2O)C2(C)CC(C)=C(O2)C1C (stereo not shown) [EM754, de(3-O-cladinosyl)-de(3′-N-methyl)-8,9-anhydro-pseudoerythromycin A 6,9-hemiketal] | inhibit almost completely viral production; also recorded: almost complete inhibition | suppressed depending on the concentration of agent |  |
| bis-de(3′-N-methyl)-3′-N-ethyl-8,9-anhydro-pseudo-erythromycin A 6,9-hemiketal [EM722] | inhibit almost completely viral production; also recorded: almost complete inhibition | suppressed depending on the concentration of agent |  |
| COC1(C)CC(OC2C(C)C(=O)OC(C(C)N)C(C)C3=C(C)CC(C)(O3)C(OC3OC(C)CC(N(C)C)C3O)C2C)OC(C)C1O (stereo not shown) [EM750, de(12-hydroxy)-de[12-(1-hydroxypropyl)]-12-amino-8,9-anhydro-pseudoerythromycin A 6,9-hemiketal] | inhibit almost completely viral production; also recorded: almost complete inhibition | suppressed depending on the concentration of agent |  |
